Data as given in US12180207B2 (ARRAY BIOPHARMA INC., priority 2018, dated 2024).

What was measured:
[1] = target: FGFR3 (SEQ ID NO: 5, amino acids 449-759) (Homo sapiens (Human), UniProt P22607); test: LC/MS FGFR3 kobs assay (covalent protein modification); format: binding; settings: 500 nM FGFR3, 3 μM compound
In short: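 Covalent modification of FGFR1 (aa 458-765) or FGFR3 (aa 449-759) followed over time; reactions quenched with 0.4% formic acid and analysed by Q-TOF LC/MS after deconvolution. Percent unmodified protein, normalized to DMSO controls, fit to exponential decay to give kobs; averaged where repeated.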

[2] = target: FGFR1 (SEQ ID NO: 1, amino acids 458-765) (Homo sapiens (Human), UniProt P11362); test: LC/MS FGFR1 kobs assay (covalent protein modification); format: binding; settings: 500 nM FGFR1, 3 μM compound
In short: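 Covalent labeling of FGFR1 kinase domain (aa 458-765) tracked over time by intact-protein LC/MS after formic acid quench. kobs derived by fitting DMSO-normalized percent unmodified FGFR1 to an exponential decay model.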

[3] = target: HEK-293 cells transfected with dox-inducible human wild type FGFR1 (Homo sapiens (Human), UniProt P11362); test: FGFR1 pERK cell assay; format: cell-based; settings: HEK-293 dox-inducible FGFR1, 1 hour compound, 100 ng/ml FGF-acidic; maximum concentration 5 μM
In short: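 In HEK-293 cells with dox-induced human wild-type FGFR1, compounds (1:3 dilutions, top 5 μM final) were applied 1 h at 37°C before 5 min stimulation with 100 ng/ml FGF-acidic. Phospho-ERK1/2 measured by MSD sandwich immunoassay; IC50 from 4-parameter fit of POC versus vehicle and control compound.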

[4] = target: dephosphorylated FGFR1 (SEQ ID NO: 1, amino acids 458 to 765) (Homo sapiens (Human), UniProt P11362); test: FGFR enzyme binding assay (HTRF tracer displacement), FGFR1; settings: 5 nM dephosphorylated FGFR1, average of multiple determinations if made
In short: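 Compounds were tested for displacement of a tracer from human FGFR kinase in a time-resolved FRET binding format. After 60 minutes at 22° C, signal was read at two wavelengths and converted to percent of control, normalised between untreated wells and 1 μM reference inhibitor.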

[5] = target: recombinant human FGFR3 (amino acids R397-T806) (Homo sapiens (Human), UniProt P22607); test: FGFR3 enzyme activity assay (LanthaScreen TR-FRET); format: biochemical; settings: 25 μM ATP, 10 min incubation at 22° C., average of multiple determinations if made, read-out: FGFR3 Enz FRET IC50
In short: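 GST-HIS6-tagged human FGFR3 (R397-T806) was reacted with 100 nM Alexa Fluor 647-Poly-GT substrate and 25 μM ATP plus compound in HEPES/MgCl2/Triton buffer, pH 7.5, 2% DMSO, for 10 min at 22 °C.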

Chain of FGFR1 (SEQ ID NO: 1, amino acids 458-765) (P11362 458-765): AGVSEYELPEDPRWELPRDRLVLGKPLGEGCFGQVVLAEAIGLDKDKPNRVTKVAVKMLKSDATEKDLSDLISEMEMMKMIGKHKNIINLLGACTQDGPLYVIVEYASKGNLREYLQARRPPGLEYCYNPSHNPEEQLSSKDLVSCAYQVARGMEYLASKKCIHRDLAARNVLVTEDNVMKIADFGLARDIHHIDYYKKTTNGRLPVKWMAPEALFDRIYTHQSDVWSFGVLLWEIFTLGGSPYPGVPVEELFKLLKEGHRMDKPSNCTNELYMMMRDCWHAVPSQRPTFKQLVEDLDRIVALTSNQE
Chain of dephosphorylated FGFR1 (SEQ ID NO: 1, amino acids 458 to 765) (P11362 458-765): as above
Chain of recombinant human FGFR3 (amino acids R397-T806) (P22607 397-806): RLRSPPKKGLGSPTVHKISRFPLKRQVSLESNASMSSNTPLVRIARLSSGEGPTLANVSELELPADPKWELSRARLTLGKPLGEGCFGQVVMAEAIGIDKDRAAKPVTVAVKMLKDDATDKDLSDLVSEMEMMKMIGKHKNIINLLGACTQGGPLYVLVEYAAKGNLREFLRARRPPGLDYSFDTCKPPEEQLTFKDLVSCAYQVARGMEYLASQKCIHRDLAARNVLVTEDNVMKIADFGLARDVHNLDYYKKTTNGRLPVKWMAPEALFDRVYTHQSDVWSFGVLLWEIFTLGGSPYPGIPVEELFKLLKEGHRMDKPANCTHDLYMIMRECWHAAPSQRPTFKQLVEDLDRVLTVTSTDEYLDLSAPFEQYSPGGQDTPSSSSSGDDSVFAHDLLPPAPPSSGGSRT
Chain of HEK-293 cells transfected with dox-inducible human wild type FGFR1 (P11362 22-822): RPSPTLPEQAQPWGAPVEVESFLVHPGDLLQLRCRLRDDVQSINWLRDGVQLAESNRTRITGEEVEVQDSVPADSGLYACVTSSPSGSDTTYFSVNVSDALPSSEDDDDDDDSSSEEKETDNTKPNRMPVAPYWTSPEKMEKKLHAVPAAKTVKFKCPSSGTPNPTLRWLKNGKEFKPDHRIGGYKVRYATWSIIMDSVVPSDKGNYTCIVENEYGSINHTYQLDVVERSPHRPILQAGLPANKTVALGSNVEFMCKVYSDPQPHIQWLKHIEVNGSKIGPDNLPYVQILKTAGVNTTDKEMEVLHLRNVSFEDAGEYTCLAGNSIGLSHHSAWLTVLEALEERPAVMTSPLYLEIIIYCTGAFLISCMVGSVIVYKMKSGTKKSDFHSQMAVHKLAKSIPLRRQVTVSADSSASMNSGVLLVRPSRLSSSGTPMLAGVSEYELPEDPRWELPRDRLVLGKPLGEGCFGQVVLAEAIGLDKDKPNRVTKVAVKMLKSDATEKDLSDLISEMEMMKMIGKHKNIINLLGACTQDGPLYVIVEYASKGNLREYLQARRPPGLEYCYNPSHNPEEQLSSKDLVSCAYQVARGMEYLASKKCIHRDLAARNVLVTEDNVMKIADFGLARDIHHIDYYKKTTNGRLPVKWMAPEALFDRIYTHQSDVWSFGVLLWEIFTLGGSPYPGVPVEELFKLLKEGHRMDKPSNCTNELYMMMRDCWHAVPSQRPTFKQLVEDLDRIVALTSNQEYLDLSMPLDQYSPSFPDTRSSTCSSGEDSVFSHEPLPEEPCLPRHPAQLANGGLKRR
Chain of FGFR3 (SEQ ID NO: 5, amino acids 449-759) (P22607 449-759): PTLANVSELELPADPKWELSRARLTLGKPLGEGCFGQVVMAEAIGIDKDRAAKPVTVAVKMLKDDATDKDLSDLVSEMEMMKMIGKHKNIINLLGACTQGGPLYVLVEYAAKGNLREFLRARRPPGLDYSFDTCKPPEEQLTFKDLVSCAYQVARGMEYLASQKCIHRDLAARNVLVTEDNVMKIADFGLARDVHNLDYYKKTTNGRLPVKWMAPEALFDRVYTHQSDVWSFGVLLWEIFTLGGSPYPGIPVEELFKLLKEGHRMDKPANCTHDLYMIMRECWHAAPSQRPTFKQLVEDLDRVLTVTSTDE

Structure (SMILES)	FGFR3 Enz kobs [1] [min⁻¹]	FGFR1 Enz kobs [2] [min⁻¹]	IC50 [3] [nM]	IC50 [4] [nM]	IC50 [5] [nM]
COc1cc(-c2c(C)nn(C3CCN(C(=O)C4(F)CN(C(=O)/C=C/CN(C)C)C4)CC3)c2C)cn2ncc(C#N)c12 [Example 161, (E)-6-(1-(1-(1-(4-(dimethylamino)but-2-enoyl)-3-fluoroazetidine-3-carbonyl)piperidin-4-yl)-3,5-dimethyl-1H-pyrazol-4-yl)-4-methoxypyrazolo [1,5-a]pyridine-3-carbonitrile]	0.1129	0.00744	1620	589	20
CCc1c(-c2cc(OC)c3c(C#N)cnn3c2)cnn1C1CCN(C(=O)C2(F)CN(C(=O)/C=C/CN(C)C)C2)CC1 [Example 162, (E)-6-(1-(1-(1-(4-(dimethylamino)but-2-enoyl)-3-fluoroazetidine-3-carbonyl)piperidin-4-yl)-5-ethyl-1H-pyrazol-4-yl)-4-methoxypyrazolo [1,5-a]pyridine-3-carbonitrile]	0.07862	0.00455	1440	1720	99
COc1cc(-c2nn(C3CCN(C(=O)C4(F)CN(C(=O)/C=C/CN(C)C)C4)CC3)nc2C)cn2ncc(C#N)c12 [Example 163, (E)-6-(2-(1-(1-(4-(dimethylamino)but-2-enoyl)-3-fluoroazetidine-3-carbonyl)piperidin-4-yl)-5-methyl-2H-1,2,3-triazol-4-yl)-4-methoxypyrazolo [1,5-a]pyridine-3-carbonitrile]	0.03573	0.00486	1650	1140	229
COc1cc(-c2nnn(C3CCN(C(=O)C4(F)CN(C(=O)/C=C/CN(C)C)C4)CC3)c2C)cn2ncc(C#N)c12 [Example 164, (E)-6-(1-(1-(1-(4-(dimethylamino)but-2-enoyl)-3-fluoroazetidine-3-carbonyl)piperidin-4-yl)-5-methyl-1H-1,2,3-triazol-4-yl)-4-methoxypyrazolo [1,5-a]pyridine-3-carbonitrile]	0.1705	0.00713	≥ 5000	350	8
COc1cc(-c2ccc(N3CCN(C(=O)C4(F)CN(C(=O)/C=C/CN(C)C)C4)CC3)nc2C)cn2ncc(C#N)c12 [Example 168, (E)-6-(6-(4-(1-(4-(dimethylamino)but-2-enoyl)-3-fluoroazetidine-3-carbonyl)piperazin-1-yl)-2-methylpyridin-3-yl)-4-methoxypyrazolo [1,5-a]pyridine-3-carbonitrile]	0.06456	0.00847	502	608	72
COc1cc(-c2cnc(N3CCN(C(=O)C4(F)CN(C(=O)/C=C/CN(C)C)C4)CC3)cc2C)cn2ncc(C#N)c12 [Example 169, (E)-6-(6-(4-(1-(4-(dimethylamino)but-2-enoyl)-3-fluoroazetidine-3-carbonyl)piperazin-1-yl) -4-methylpyridin-3-yl)-4-methoxypyrazolo [1,5-a]pyridine-3-carbonitrile]	0.08	0.00576	751	788	83
COc1cc(-c2cnn(C3CCN(C(=O)C4(F)CN(C(=O)/C=C/CN(C)C)C4)CC3)c2C)cn2ncc(Cl)c12 [Example 170, (E)-1-(3-(4-(4-(3-chloro-4-methoxypyrazolo [1,5-a]pyridin-6-yl)-5-methyl-1H-pyrazol-1-yl)piperidine-1-carbonyl)-3-fluoroazetidin-1-yl)-4-(dimethylamino)but-2-en-1-one]	0.1388	0.00774	915	488	17
COc1cc(-c2cnn(C3CCN(C(=O)C4(OC)CN(C(=O)/C=C/CN(C)C)C4)CC3)c2C)cn2ncc(Cl)c12 [Example 171, (E)-1-(3-(4-(4-(3-chloro-4-methoxypyrazolo [1,5-a]pyridin-6-yl)-5-methyl-1H-pyrazol-1-yl)piperidine-1-carbonyl)-3-methoxyazetidin-1-yl)-4-(dimethylamino)but-2-en-1-one]	0.0804	0.00471	888	336	24
C=CC(=O)N1CC(O)(C(=O)N2CCC(n3ncc(-c4cc(OC)c5c(Cl)cnn5c4)c3C)CC2)C1 [Example 172, 1-(3-(4-(4-(3-chloro-4-methoxypyrazolo [1,5-a]pyridin-6-yl)-5-methyl-1H-pyrazol-1-yl)piperidine-1-carbonyl)-3-hydroxyazetidin-1-yl)prop-2-en-1-one]	0.02599	0.00191	3290	922	101
COc1cc(-c2cnn(C3CCN(CC4(OC)CN(C(=O)/C=C/CN(C)C)C4)CC3)c2C)cn2ncc(Cl)c12 [Example 173, (E)-1-(3-((4-(4-(3-chloro-4-methoxypyrazolo [1,5-a]pyridin-6-yl)-5-methyl-1H-pyrazol-1-yl)piperidin-1-yl)methyl)-3-methoxyazetidin-1-yl)-4-(dimethylamino)but-2-en-1-one]	0.06559	0.00434	1280	359	41
COc1cc(-c2cnn(C3CCN(C(=O)C4CN(C(=O)C#CCO)C4)CC3)c2)cn2ncc(C#N)c12 [Example 179, 6-(1-(1-(1-(4-hydroxybut-2-ynoyl)azetidine-3-carbonyl)piperidin-4-yl)-1H-pyrazol-4-yl)-4-methoxypyrazolo[1,5-a]pyridine-3-carbonitrile]	0.189	0.01248	1600	22	3
COc1cc(-c2cnn(C3CCN(C(=O)C4CN(C(=O)/C=C/CBr)C4)CC3)c2)cn2ncc(C#N)c12 [Example 180, (E)-6-(1-(1-(1-(4-bromobut-2-enoyl)azetidine-3-carbonyl)piperidin-4-yl)-1H-pyrazol-4-yl)-4-methoxypyrazolo[1,5-a]pyridine-3-carbonitrile]	0.1329	0.04552	130	14	6
COc1cc(-c2cnn(C3CCN(C(=O)C4CN(C(=O)/C=C/CCl)C4)CC3)c2)cn2ncc(C#N)c12 [Example 181, (E)-6-(1-(1-(1-(4-chlorobut-2-enoyl)azetidine-3-carbonyl)piperidin-4-yl)-1H-pyrazol-4-yl)-4-methoxypyrazolo[1,5-a]pyridine-3-carbonitrile]	0.02709	0.00249	196	32	2
COc1cc(-c2cnn(C3CCN(C(=O)C4CN(C(=O)/C=C/CN5CC[C@H](F)C5)C4)CC3)c2)cn2ncc(C#N)c12 [Example 182, (S,E)-6-(1-(1-(1-(4-(3-fluoropyrrolidin-1-yl)but-2-enoyl)azetidine-3-carbonyl)piperidin-4-yl)-1H-pyrazol-4-yl)-4-methoxypyrazolo[1,5-a]pyridine-3-carbonitrile]	0.01781	0.00202	3630	40	3
COc1cc(-c2cnn(C3CCN(C(=O)C4CN(C(=O)/C=C/CN5CC[C@@H](F)C5)C4)CC3)c2)cn2ncc(C#N)c12 [Example 183, (R,E)-6-(1-(1-(1-(4-(3-fluoropyrrolidin-1-yl)but-2-enoyl)azetidine-3-carbonyl)piperidin-4-yl)-1H-pyrazol-4-yl)-4-methoxypyrazolo[1,5-a]pyridine-3-carbonitrile]	0.02414	0.00259	4570	46	5
COc1cc(-c2cnn(C3CCN(C(=O)C4CN(C(=O)/C=C/CN5CCOCC5)C4)CC3)c2)cn2ncc(C#N)c12 [Example 184, (E)-4-methoxy-6-(1-(1-(1-(4-morpholinobut-2-enoyl)azetidine-3-carbonyl)piperidin-4-yl)-1H-pyrazol-4-yl)pyrazolo[1,5-a]pyridine-3-carbonitrile]	0.00475	0.00043	≥ 5000	52	6
